T/C data for 20 compounds are collected here from PubChem BioAssay AID274 (DTP/NCI, 2004).

Where “and” joins values, the source holds several entries; their conditions need not be identical. Identical values can stand only once. Toxic doses and inconclusive results are not listed.

The assay concerns BDF1 mice, Lewis lung carcinoma iv, survival T/C. The assay is described as follows: NCI In Vivo Anticancer Drug Screen. Data for tumor model Lewis Lung Carcinoma (intravenous) in B6D2F1 (BDF1) mice. Particulars: endpoint: median survival time, higher = longer survival. How it is done: The antitumor activity of compounds was measured in mice bearing transplantable tumors. Survival or tumor size were measured and the results are expressed as the measurement made in the treated group (T) divided by the measurement made in the vehicle treated control group (C). The tumor model used in this assay is Lewis Lung Carcinoma (intravenous) in B6D2F1 (BDF1) mice

Setting [1] is: dose: 25.0 mg/kg/injection, schedule: Q01DX009 (ip), vehicle: water.
Setting [2] is: dose: 50.0 mg/kg/injection, schedule: Q01DX009 (ip), vehicle: water.
Where [3] appears, read: dose: 100.0 mg/kg/injection, schedule: Q01DX009 (ip), vehicle: water.
The mark [4] stands for this setting: dose: 12.5 mg/kg/injection, schedule: Q01DX009 (ip), vehicle: Klucel (hydroxypropylcellulose) (HPC).
Where [5] appears, read: dose: 25.0 mg/kg/injection, schedule: Q01DX009 (ip), vehicle: Klucel (hydroxypropylcellulose) (HPC).
Setting [6] is: dose: 50.0 mg/kg/injection, schedule: Q01DX009 (ip), vehicle: Klucel (hydroxypropylcellulose) (HPC).
The mark [7] stands for this setting: dose: 100.0 mg/kg/injection, schedule: Q01DX009 (ip), vehicle: Klucel (hydroxypropylcellulose) (HPC).
Where [8] appears, read: dose: 200.0 mg/kg/injection, schedule: Q01DX009 (ip), vehicle: Klucel (hydroxypropylcellulose) (HPC).
Setting [9] is: dose: 400.0 mg/kg/injection, schedule: Q01DX009 (ip), vehicle: Klucel (hydroxypropylcellulose) (HPC).
Where [10] appears, read: dose: 12.5 mg/kg/injection, schedule: Q01DX009 (ip), vehicle: saline.
Where [11] appears, read: dose: 12.5 mg/kg/injection, schedule: Q01DX009 (ip), vehicle: saline with Tween-80.
The mark [12] stands for this setting: dose: 25.0 mg/kg/injection, schedule: Q01DX009 (ip), vehicle: saline with Tween-80.
[13] abbreviates: dose: 50.0 mg/kg/injection, schedule: Q01DX009 (ip), vehicle: saline with Tween-80.
Where [14] appears, read: dose: 100.0 mg/kg/injection, schedule: Q01DX009 (ip), vehicle: saline with Tween-80.
Setting [15] is: dose: 200.0 mg/kg/injection, schedule: Q01DX009 (ip), vehicle: saline with Tween-80.
[16] abbreviates: dose: 6.25 mg/kg/injection, schedule: Q01DX009 (ip), vehicle: Klucel (hydroxypropylcellulose) (HPC).

As to `CC(C)([NH-])CO.CC(C)([NH-])CO.[Cl][Cd][Cl]`, the T/C is, setting by setting: (dose: 0.63 mg/kg/injection, schedule: Q01DX009 (ip), vehicle: saline with Tween-80) 97 % of control; (dose: 1.25 mg/kg/injection, schedule: Q01DX009 (ip), vehicle: saline with Tween-80) 88 % of control; (dose: 2.5 mg/kg/injection, schedule: Q01DX009 (ip), vehicle: saline with Tween-80) 99 % of control.

On to `N#CC(=C1SCS1)[N+](=O)[O-]`, for which the T/C (dose: 0.75 mg/kg/injection, schedule: Q01DX009 (ip), vehicle: saline with Tween-80) is 94 % of control; the T/C (dose: 1.5 mg/kg/injection, schedule: Q01DX009 (ip), vehicle: saline with Tween-80) is 102 % of control; the T/C (dose: 3.0 mg/kg/injection, schedule: Q01DX009 (ip), vehicle: saline with Tween-80) was 102 % of control; the T/C (dose: 6.0 mg/kg/injection, schedule: Q01DX009 (ip), vehicle: saline with Tween-80) is 92 % of control.

`C[n+]1cccc(NC(=O)c2ccc(NC(=O)C34CCC(C(=O)Nc5ccc(C(=O)Nc6ccc[n+](C)c6)cc5)(CC3)CC4)cc2)c1`: the T/C was 93 % of control (dose: 5.0 mg/kg/injection, schedule: Q01DX009 (ip), vehicle: saline with Tween-80) and 99 % of control (dose: 10.0 mg/kg/injection, schedule: Q01DX009 (ip), vehicle: saline with Tween-80).

Regarding `C/C=C/C1=CC(=O)C(O)C1O` (centres undefined), the T/C reads like this: under setting [1], 103 % of control; under setting [2], 99 % of control; under setting [3], 101 % of control.

For `Clc1ccc(C2SC=Cc3ccccc32)cc1` (centres undefined), the T/C was 94 % of control under setting [4]; 105 % of control under setting [5]; 108 % of control under setting [6]; 108 % of control under setting [7]; 115 % of control under setting [8]; 108 % of control under setting [9].

Regarding `c1nc(N2CC2)c2cnn(C3CCCCO3)c2n1` (centres undefined), the T/C under setting [5] was 107 % of control, the T/C under setting [6] is 100 % of control and the T/C under setting [7] was 101 % of control.

On to `OC(CBr)C(O)C(O)C(O)CBr` (centres undefined), for which the T/C is 117 % of control under setting [6]; 109 % of control under setting [7]; 103 % of control under setting [8]; 111 % of control under setting [9]; 97 % of control (dose: 800.0 mg/kg/injection, schedule: Q01DX009 (ip), vehicle: Klucel (hydroxypropylcellulose) (HPC)).

On to `O=C(NO)c1cc(O)c(O)c(O)c1`, for which the T/C runs as follows: under setting [1], 100 % of control; under setting [2], 100 % of control; under setting [3], 97 % of control; (dose: 200.0 mg/kg/injection, schedule: Q01DX009 (ip), vehicle: water) 97 % of control.

As for `C[CH2][Sn]([CH2]C)([O]S(C)(=O)=O)[O]S(C)(=O)=O`, the T/C reads like this: (dose: 0.78 mg/kg/injection, schedule: Q01DX009 (ip), vehicle: saline) 98 % of control; (dose: 1.56 mg/kg/injection, schedule: Q01DX009 (ip), vehicle: saline) 105 % of control; (dose: 3.12 mg/kg/injection, schedule: Q01DX009 (ip), vehicle: saline) 93 % of control; (dose: 6.25 mg/kg/injection, schedule: Q01DX009 (ip), vehicle: saline) 92 % of control; under setting [10], 93 % of control.

Consider `CC1=CC(=NN=c2cc(C)n([O-])c(C)c2)C=C(C)[N+]1=O`, for which the T/C under setting [11] is 102 % of control; the T/C under setting [12] was 100 % of control; the T/C under setting [13] is 104 % of control; the T/C under setting [14] is 105 % of control; the T/C under setting [15] was 86 % of control.

On to `O=C1N(Cl)C(=O)C(c2ccc(Cl)cc2)(c2ccc(Cl)cc2)N1Cl`, for which the T/C under setting [11] is 101 % of control; the T/C under setting [12] was 96 % of control; the T/C under setting [13] was 103 % of control; the T/C under setting [14] was 101 % of control; the T/C under setting [15] was 103 % of control; the T/C (dose: 400.0 mg/kg/injection, schedule: Q01DX009 (ip), vehicle: saline with Tween-80) is 113 % of control.

For `CN(C)CCCNc1c2ccccc2nc2cccc([N+](=O)[O-])c12`, the T/C runs as follows: (dose: 44.8 micrograms/kg/injection, schedule: Q04DX003 (ip), vehicle: saline) 92 % of control; (dose: 124.0 micrograms/kg/injection, schedule: Q04DX003 (ip), vehicle: saline) 92 % of control; (dose: 346.0 micrograms/kg/injection, schedule: Q04DX003 (ip), vehicle: saline) 86 % of control.

On to `CC(=O)c1c(O)c(C)c(O)c2c1OC1=CC(=O)C(C(C)=O)C(=O)C12C` (centres undefined), for which the T/C (dose: 50.0 mg/kg/injection, schedule: Q01DX009 (ip), vehicle: gum acacia) is 89 % of control.

As for `CC(=O)OCC(=O)[C@@]12OC(C)(C)O[C@@H]1C[C@H]1[C@@H]3CC(C=O)=C4C=C(OCCCl)CC[C@]4(C)[C@@]3(F)[C@@H](O)C[C@@]12C`, the T/C by setting is: (dose: 1.56 mg/kg/injection, schedule: Q01DX009 (ip), vehicle: Klucel (hydroxypropylcellulose) (HPC)) 104 % of control; (dose: 3.12 mg/kg/injection, schedule: Q01DX009 (ip), vehicle: Klucel (hydroxypropylcellulose) (HPC)) 100 % of control; (dose: 3.13 mg/kg/injection, schedule: Q01DX009 (ip), vehicle: Klucel (hydroxypropylcellulose) (HPC)) 110 % of control; under setting [16], 102 % of control and 112 % of control; under setting [4], 104 % of control and 121 % of control.

For `COc1cc2cc(c1Cl)N(C)C(=O)C[C@H](OC(=O)[C@H](C)N(C)C(C)=O)[C@]1(C)O[C@H]1[C@H](C)[C@@H]1C[C@@](O)(NC(=O)O1)[C@H](OC)C=C/C=C(\C)C2`, the T/C runs as follows: (dose: 54.0 micrograms/kg/injection, schedule: Q04DX003 (ip), vehicle: water) 94 % of control; (dose: 90.0 micrograms/kg/injection, schedule: Q04DX003 (ip), vehicle: water) 94 % of control; (dose: 150.0 micrograms/kg/injection, schedule: Q04DX003 (ip), vehicle: water) 90 % of control.

Turning to `Cc1cc(O)c(C(C)C)cc1S(=O)(=O)O` (tested in a mixture with another compound), the T/C runs as follows: under setting [7], 90 % of control; under setting [8], 102 % of control.

With `C[Si](C)(C)O/C=C1/CCOC1=O`, the T/C runs as follows: under setting [10], 116 % of control; (dose: 25.0 mg/kg/injection, schedule: Q01DX009 (ip), vehicle: saline) 101 % of control; (dose: 50.0 mg/kg/injection, schedule: Q01DX009 (ip), vehicle: saline) 107 % of control; (dose: 100.0 mg/kg/injection, schedule: Q01DX009 (ip), vehicle: saline) 108 % of control; (dose: 200.0 mg/kg/injection, schedule: Q01DX009 (ip), vehicle: saline) 93 % of control; (dose: 400.0 mg/kg/injection, schedule: Q01DX009 (ip), vehicle: saline) 99 % of control.

As to `O=C(CCN1CC1)OCCOC(=O)CCN1CC1`, the T/C is 111 % of control (dose: 1.5 mg/kg/injection, schedule: Q01DX009 (ip), vehicle: saline); 107 % of control (dose: 3.0 mg/kg/injection, schedule: Q01DX009 (ip), vehicle: saline); 99 % of control (dose: 6.0 mg/kg/injection, schedule: Q01DX009 (ip), vehicle: saline); 107 % of control (dose: 24.0 mg/kg/injection, schedule: Q01DX009 (ip), vehicle: saline).

For the compound `COc1ccc2[nH]c3c(c2c1)CCNC3CC(C)CCC=C(C)C` (centres undefined), the T/C under setting [16] was 116 % of control; the T/C under setting [4] was 98 % of control; the T/C under setting [5] was 102 % of control; the T/C under setting [6] is 95 % of control; the T/C under setting [7] was 107 % of control.

`O=C1C2(Cl)C3(Cl)C4(Cl)C(Cl)(Cl)C5(Cl)[C@]3(Cl)C1(Cl)[C@]5(Cl)C24Cl` (some centres undefined): the T/C (dose: 1.56 mg/kg/injection, schedule: Q01DX009 (ip), vehicle: saline with Tween-80) was 301 % of control; the T/C (dose: 3.12 mg/kg/injection, schedule: Q01DX009 (ip), vehicle: saline with Tween-80) is 110 % of control; the T/C (dose: 6.25 mg/kg/injection, schedule: Q01DX009 (ip), vehicle: saline with Tween-80) is 95 % of control; the T/C under setting [11] was 122 % of control.
